Measurements: PMC10114720

Key:
[1] = monoprotic acid or base: log K of the neutral species extrapolated from the linear regression of D on the neutral fraction (from pKa and pH; the paper's eq. for monoprotic IOCs), the slope giving K of the neutral species; replicates column holds the table's 95% confidence limits. PDMS sheets cleaned by Soxhlet with ethyl acetate; batch shaking method with a mixture of all chemicals at several PDMS-mass to water-volume ratios and spiked levels; vials shaken on an orbital shaker at room temperature in the dark, sampled at two equilibration times; PDMS extracts and water quantified by LC-HRMS (Orbitrap); D from the slope of C_PDMS on C_w or their ratio; conditions: PDMS (polydimethylsiloxane silicone sheet); phosphate buffer at three target pH values (the paper's methods)
[2] = PDMS sheets cleaned by Soxhlet with ethyl acetate; batch shaking method with a mixture of all chemicals at several PDMS-mass to water-volume ratios and spiked levels; vials shaken on an orbital shaker at room temperature in the dark, sampled at two equilibration times; PDMS extracts and water quantified by LC-HRMS (Orbitrap); D from the slope of C_PDMS on C_w or their ratio; value is the mean over that pH's experiments (individual experiments in the SI's concentrations table), sd is the table's stdev; conditions: PDMS (polydimethylsiloxane silicone sheet), phosphate buffer at three target pH values (the paper's methods)

SMILES	log K PDMS/w (neutral species) [1]	log D PDMS/w (apparent distribution ratio at the stated pH) ([2]; pH 3)	log D PDMS/w (apparent distribution ratio at the stated pH) ([2]; pH 7.4)	log D PDMS/w (apparent distribution ratio at the stated pH) ([2]; pH 11.5)
Clc1ccc(COC(Cn2ccnc2)c2ccc(Cl)cc2Cl)c(Cl)c1 (stereo not drawn)	4.599 log units; D and K as the pape	2.616 log units; D and K as the pape	4.581 log units; D and K as the pape	4.53 log units; D and K as the pape
CO/C=C(/C(=O)O)c1ccccc1Oc1cc(Oc2ccccc2C#N)ncn1	1.355 log units; D and K as the pape	1.162 log units; D and K as the pape	-0.4633 log units; D and K as the pape	-0.695 log units; D and K as the pape
Cc1ccc2[nH]nnc2c1	0.3619 log units; D and K as the pape	0.336 log units; D and K as the pape	0.308 log units; D and K as the pape	-0.64 log units; D and K as the pape
O=C1Nc2ccc(Cl)cc2C(C#CC2CC2)(C(F)(F)F)O1 (stereo not drawn)	2.899 log units; D and K as the pape	2.835 log units; D and K as the pape	2.884 log units; D and K as the pape	–
NC12CC3CC(CC(C3)C1)C2	2.916 log units; D and K as the pape	–	–	–
CCCCc1nc(Cl)c(CO)n1Cc1ccc(-c2ccccc2-c2nn[nH]n2)cc1	1.068 log units; D and K as the pape	0.8893 log units; D and K as the pape	-0.01 log units; D and K as the pape	-0.67 log units; D and K as the pape
CCNC(=O)[C@@H](C)OC(=O)Nc1ccccc1	-0.07551 log units; D and K as the pape	0.635 log units; D and K as the pape	0.5527 log units; D and K as the pape	0.7717 log units; D and K as the pape
c1ccc2[nH]nnc2c1	0.1268 log units; D and K as the pape	0.055 log units; D and K as the pape	0.06625 log units; D and K as the pape	–
Cc1nccn1CC1CCc2c(c3ccccc3n2C)C1=O (stereo not drawn)	2.203 log units; D and K as the pape	-0.92 log units; D and K as the pape	1.409 log units; D and K as the pape	2.124 log units; D and K as the pape
CCNS(=O)(=O)c1ccccc1C	0.5936 log units; D and K as the pape	0.51 log units; D and K as the pape	0.4188 log units; D and K as the pape	0.4886 log units; D and K as the pape
c1ccc2c(c1)[nH]c1ccncc12	2.458 log units; D and K as the pape	-0.445 log units; D and K as the pape	2.315 log units; D and K as the pape	2.443 log units; D and K as the pape
CCOC(=O)CC(O)(CC(=O)OCC)C(=O)OCC	0.9455 log units; D and K as the pape	1.101 log units; D and K as the pape	1.143 log units; D and K as the pape	–
CCNc1ccc2c(C)cc(=O)oc2c1	2.015 log units; D and K as the pape	1.914 log units; D and K as the pape	1.863 log units; D and K as the pape	1.825 log units; D and K as the pape
CCc1cccc(C)c1N(C(=O)C(=O)O)C(C)C(=O)O (stereo not drawn)	–	1.878 log units; D and K as the pape	3.06 log units; D and K as the pape	3.008 log units; D and K as the pape
CCOC(=O)c1ccc(N(C)C)cc1	2.315 log units; D and K as the pape	2.216 log units; D and K as the pape	2.266 log units; D and K as the pape	2.184 log units; D and K as the pape
COC(=O)Nc1nc2ccc(C(=O)c3ccccc3)cc2[nH]1	–	1.465 log units; D and K as the pape	1.732 log units; D and K as the pape	1.506 log units; D and K as the pape
c1ccc2sc(N3CCOCC3)nc2c1	2.029 log units; D and K as the pape	1.704 log units; D and K as the pape	1.897 log units; D and K as the pape	1.881 log units; D and K as the pape

SMILES	log K PDMS/w (neutral species) [1]	log D PDMS/w (apparent distribution ratio at the stated pH) ([2]; pH 3)	log D PDMS/w (apparent distribution ratio at the stated pH) ([2]; pH 7.4)	log D PDMS/w (apparent distribution ratio at the stated pH) ([2]; pH 11.5)
NC(=O)N1c2ccccc2C(O)C(O)c2ccccc21 (stereo not drawn)	0.07041 log units; D and K as the pape	-0.08 log units; D and K as the pape	-0.44 log units; D and K as the pape	-0.57 log units; D and K as the pape
N[C@@H](Cc1cc(I)c(Oc2cc(I)c(O)c(I)c2)c(I)c1)C(=O)O	–	0.632 log units; D and K as the pape	0.2933 log units; D and K as the pape	–
Clc1ccccc1C(c1ccccc1)(c1ccccc1)n1ccnc1	4.471 log units; D and K as the pape	2.324 log units; D and K as the pape	4.388 log units; D and K as the pape	4.335 log units; D and K as the pape
Clc1ccc2n[nH]nc2c1	1.144 log units; D and K as the pape	0.7386 log units; D and K as the pape	0.79 log units; D and K as the pape	0.065 log units; D and K as the pape
CCc1ccc(CCOc2ccc(CC3SC(=O)NC3=O)cc2)nc1 (stereo not drawn)	–	0.7792 log units; D and K as the pape	2.087 log units; D and K as the pape	-0.02556 log units; D and K as the pape
c1ccc2nc3ccccc3cc2c1	2.366 log units; D and K as the pape	0.945 log units; D and K as the pape	2.315 log units; D and K as the pape	2.167 log units; D and K as the pape
Cc1cc(=O)oc2cc(N)ccc12	0.9136 log units; D and K as the pape	0.7917 log units; D and K as the pape	0.8008 log units; D and K as the pape	0.8475 log units; D and K as the pape
Nc1nc2ccccc2[nH]1	–	–	-0.58 log units; D and K as the pape	-0.51 log units; D and K as the pape
CC(C)(Oc1ccc(CCNC(=O)c2ccc(Cl)cc2)cc1)C(=O)O	1.311 log units; D and K as the pape	1.054 log units; D and K as the pape	-0.64 log units; D and K as the pape	–
CNC(=O)Oc1cccc2ccccc12	1.106 log units; D and K as the pape	–	–	–
O=C(Nc1ccc(Cl)c(Cl)c1)c1cc(Cl)cc(Cl)c1O	3.883 log units; D and K as the pape	–	–	–
CC(CCc1ccccc1)NCC(O)c1ccc(O)c(C(N)=O)c1 (stereo not drawn)	–	-0.855 log units; D and K as the pape	-0.2383 log units; D and K as the pape	–
Oc1c(Br)cc(Cl)cc1Cc1cc(Cl)cc(Br)c1O	–	3.724 log units; D and K as the pape	2.256 log units; D and K as the pape	0.555 log units; D and K as the pape
CC(C)(c1cc(Br)c(O)c(Br)c1)c1cc(Br)c(O)c(Br)c1	–	4.46 log units; D and K as the pape	2.944 log units; D and K as the pape	–
COCCc1ccc(OCC(O)CNC(C)C)cc1 (stereo not drawn)	–	0.28 log units; D and K as the pape	-0.003333 log units; D and K as the pape	–
O=C(O)Cc1ccccc1Nc1c(Cl)cccc1Cl	1.867 log units; D and K as the pape	–	–	–
